# Target: T1, human neutrophil elastase (HNE) (Homo sapiens, UniProt P08246)
# T1 construct: purchased Sigma E8140
# T1 sequence (P08246 30-247 limits assumed): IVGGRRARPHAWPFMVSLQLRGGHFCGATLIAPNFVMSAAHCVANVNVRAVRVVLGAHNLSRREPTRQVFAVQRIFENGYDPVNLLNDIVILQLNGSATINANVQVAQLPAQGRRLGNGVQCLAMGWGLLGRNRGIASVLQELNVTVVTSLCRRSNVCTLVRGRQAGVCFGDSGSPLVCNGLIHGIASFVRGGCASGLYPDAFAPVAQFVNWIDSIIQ
# Experiment: HNE enzyme assay (human neutrophil elastase enzyme activity assay)
# Assay type: biochemical
# Details: human leukocyte elastase 0.00072 U/mL; substrate MeOSuc-Ala-Ala-Pro-Val-AMC 100 μM; 25° C. for 30 minutes; at least two separate experiments; read-out: HNE inhibition (HNE enzyme inhibition, IC50 values)
# Procedure: Compounds of the present invention were tested for potency in a human neutrophil elastase (HNE) enzyme activity assay.
# Assays were performed in 96-well plates in a total assay volume of 100 μL. The final concentration of elastase enzyme (human leukocyte elastase, Sigma E8140) was 0.00072 U/mL. The peptide substrate (MeOSuc-Ala-Ala-Pro-Val-AMC, Calbiochem #324740) was used at a final concentration of 100 μM. The final concentration of DMSO was 1% in the assay buffer (0.05M Tris.HCl, 0.1M NaCl, 0.1M CaCl2, 0.0005% brij-35, pH 7.5). The enzymatic reaction was started by addition of the enzyme and incubated at 25° C. for 30 minutes. After incubation, the reaction was stopped by addition of soybean trypsin inhibitor (Sigma T9003) at a final concentration of 50 μg/well. Fluorescence was measured using a Molecular Devices fluorescence plate reader using 380 nm excitation and 460 nm emission wavelengths.
# A dose response to each compound was performed and the effect of compound in each experiment was expressed as a percentage inhibition of the control enzyme fluorescence. Dose response curves were plotted and compound potency (IC50) was determined. Compounds were tested in at least two separate experiments.
row,IC50 [nM],Compound
1,< 1,"Cn1cc[n+](C[C@H]2CC[C@H](NC(=O)c3c(-c4ccnn4-c4ccc(C#N)cc4)n(C)n(-c4cccc(C(F)(F)F)c4)c3=O)CC2)c1 [Example 70, 1-(4-{[2′-(4-Cyano-phenyl)-2-methyl-5-oxo-1-(3-trifluoromethyl-phenyl)-2,5-dihydro-1H,2′H-[3,3′]bipyrazolyl-4-carbonyl]-amino}-cyclohexylmethyl)-3-methyl-3H-imidazol-1-ium bromide]"
2,< 1,"CCOC(=O)c1c(-c2ccnn2-c2ccc(C#N)cc2)n(C)n(-c2cccc(C(F)(F)F)c2)c1=O [Example 1, 2′-(4-Cyano-phenyl)-2-methyl-5-oxo-1-(3-trifluoromethyl-phenyl)-2,5-dihydro-1H,2′H-[3,3′]bipyrazolyl-4-carboxylic acid ethyl ester]"
3,< 1,"Cn1c(-c2ccnn2-c2ccc(C#N)cc2)c(C(=O)N[C@H]2CC[C@H](OC(=O)C[N+](C)(C)C)CC2)c(=O)n1-c1cccc(C(F)(F)F)c1 [Example 62, (Trans-4-{[2′-(4-cyano-phenyl)-2-methyl-5-oxo-1-(3-trifluoromethyl-phenyl)-2,5-dihydro-1H,2′H-[3,3′]bipyrazolyl-4-carbonyl]-amino}-cyclohexyloxycarbonylmethyl)-trimethyl-ammonium benzene sulphonate]"
4,< 1,"CN1CCC(OC(=O)[C@H]2CC[C@H](NC(=O)c3c(-c4ccnn4-c4ccc(C#N)cc4)n(C)n(-c4cccc(C(F)(F)F)c4)c3=O)CC2)CC1 [Example 13, Trans-4-{[2′-(4-cyano-phenyl)-2-methyl-5-oxo-1-(3-trifluoromethyl-phenyl)-2,5-dihydro-1H,2′H-[3,3′]bipyrazolyl-4-carbonyl]-amino}-cyclohexanecarboxylic acid 1-methyl-piperidin-4-yl ester]"
5,< 1,"Cn1c(-c2ccnn2-c2ccc(C#N)cc2)c(C(=O)NC(C)(C)c2ncc(C[N+](C)(C)C)o2)c(=O)n1-c1cccc(C(F)(F)F)c1 [Example 48, [2-(1-{[2′-(4-Cyano-phenyl)-2-methyl-5-oxo-1-(3-trifluoromethyl-phenyl)-2,5-dihydro-1H,2′H-[3,3′]bipyrazolyl-4-carbonyl]-amino}-1-methyl-ethyl)-oxazol-5-ylmethyl]-trimethyl-ammonium benzene sulphonate]"
6,< 1,"C[C@H](NC(=O)c1c(-c2ccnn2-c2ccc(C#N)cc2)n(C)n(-c2cccc(C(F)(F)F)c2)c1=O)c1nnc(CN(C)C)o1 [Example 8, 2′-(4-Cyano-phenyl)-2-methyl-5-oxo-1-(3-trifluoromethyl-phenyl)-2,5-dihydro-1H,2′H-[3,3′]bipyrazolyl-4-carboxylic acid [(S)-1-(5-dimethylaminomethyl-[1,3,4]oxadiazol-2-yl)-ethyl]-amide]"
7,< 1,"Cn1c(-c2ccnn2-c2ccc(C#N)cc2)c(C(=O)N[C@H]2CC[C@H](C[N+](C)(C)C)CC2)c(=O)n1-c1cccc(C(F)(F)F)c1 [Example 24, (Trans-4-{[2′-(4-cyano-phenyl)-2-methyl-5-oxo-1-(3-trifluoromethyl-phenyl)-2,5-dihydro-1H,2′H-[3,3′]bipyrazolyl-4-carbonyl]-amino}-cyclohexylmethyl)-trimethyl-ammonium benzene sulphonate]"
8,< 1,"Cc1cc(C[N+](C)(C)C[C@H]2CC[C@H](NC(=O)c3c(-c4ccnn4-c4ccc(C#N)cc4)n(C)n(-c4cccc(C(F)(F)F)c4)c3=O)CC2)n(C)n1 [Example 46, (Trans-4-{[2′-(4-cyano-phenyl)-2-methyl-5-oxo-1-(3-trifluoromethyl-phenyl)-2,5-dihydro-1H,2′H-[3,3′]bipyrazolyl-4-carbonyl]-amino}-cyclohexylmethyl)-(2,5-dimethyl-2H-pyrazol-3-ylmethyl)-dimethyl-ammonium bromide]"
9,< 1,"C[C@H](NC(=O)c1c(-c2ccnn2-c2ccc(C#N)cc2)n(C)n(-c2cccc(C(F)(F)F)c2)c1=O)C(=O)N1CC[N+](C)(C)CC1 [Example 26, 4-((S)-2-{[2′-(4-Cyano-phenyl)-2-methyl-5-oxo-1-(3-trifluoromethyl-phenyl)-2,5-dihydro-1H,2′H-[3,3′]bipyrazolyl-4-carbonyl]-amino}-propionyl)-1,1-dimethyl-piperazin-1-ium benzene sulphonate]"
10,< 1,"Cn1c(-c2ccnn2-c2ccc(C#N)cc2)c(C(=O)N[C@H]2CC[C@H](c3ncc(C[N+](C)(C)C)o3)CC2)c(=O)n1-c1cccc(C(F)(F)F)c1 [Example 67, [2-(Trans-4-{[2′-(4-Cyano-phenyl)-2-methyl-5-oxo-1-(3-trifluoromethyl-phenyl)-2,5-dihydro-1H,2′H-[3,3′]bipyrazolyl-4-carbonyl]-amino}-cyclohexyl)-oxazol-5-ylmethyl]-trimethyl-ammonium benzene sulphonate]"
11,< 1,"C[C@H](NC(=O)c1c(-c2ccnn2-c2ccc(C#N)cc2)n(C)n(-c2cccc(C(F)(F)F)c2)c1=O)C(=O)N1CCCN(C)CC1 [Example 17, 2′-(4-Cyano-phenyl)-2-methyl-5-oxo-1-(3-trifluoromethyl-phenyl)-2,5-dihydro-1H,2′H-[3,3′]bipyrazolyl-4-carboxylic acid [(S)-1-methyl-2-(4-methyl-[1,4]diazepan-1-yl)-2-oxo-ethyl]-amide]"
12,< 1,"CN1CCC(NC(=O)[C@H]2CC[C@H](NC(=O)c3c(-c4ccnn4-c4ccc(C#N)cc4)n(C)n(-c4cccc(C(F)(F)F)c4)c3=O)CC2)CC1 [Example 12, 2′-(Trans-4-cyano-phenyl)-2-methyl-5-oxo-1-(3-trifluoromethyl-phenyl)-2,5-dihydro-1H,2′H-[3,3′]bipyrazolyl-4-carboxylic acid [4-(1-methyl-piperidin-4-ylcarbamoyl)-cyclohexyl]-amide]"
13,< 1,"Cn1c(-c2ccnn2-c2ccc(C#N)cc2)c(C(=O)NC2C[C@H]3CC[C@@H](C2)[N+]3(C)C)c(=O)n1-c1cccc(C(F)(F)F)c1 (stereo partly drawn) [Example 28, (1S,3S,5R)-3-{[2′-(4-Cyano-phenyl)-2-methyl-5-oxo-1-(3-trifluoromethyl-phenyl)-2,5-dihydro-1H,2′H-[3,3′]bipyrazolyl-4-carbonyl]-amino}-8,8-dimethyl-8-azonia-bicyclo[3.2.1]octane benzene sulphonate]"
14,< 1,"C[C@H](NC(=O)c1c(-c2ccnn2-c2ccc(C#N)cc2)n(C)n(-c2cccc(C(F)(F)F)c2)c1=O)c1ncc(C[N+](C)(C)C)o1 [Example 30, [2-((S)-1-{[2′-(4-Cyano-phenyl)-2-methyl-5-oxo-1-(3-trifluoromethyl-phenyl)-2,5-dihydro-1H,2′H-[3,3′]bipyrazolyl-4-carbonyl]-amino}-ethyl)-oxazol-5-ylmethyl]-trimethyl-ammonium benzene sulphonate]"
15,< 1,"Cn1c(-c2ccnn2-c2ccc(C#N)cc2)c(C(=O)N[C@H]2C[C@H](C(=O)NCC[N+](C)(C)C)C2)c(=O)n1-c1cccc(C(F)(F)F)c1 [Example 51, {2-[(Trans-3-{[2′-(4-cyano-phenyl)-2-methyl-5-oxo-1-(3-trifluoromethyl-phenyl)-2,5-dihydro-1H,2′H-[3,3′]bipyrazolyl-4-carbonyl]-amino}-cyclobutanecarbonyl)-amino]-ethyl}-trimethyl-ammonium benzene sulphonate]"
16,< 1,"CN(CC[N+](C)(C)C)C(=O)C1(NC(=O)c2c(-c3ccnn3-c3ccc(C#N)cc3)n(C)n(-c3cccc(C(F)(F)F)c3)c2=O)CCCC1 [Example 61, {2-[(1-{[2′-(4-Cyano-phenyl)-2-methyl-5-oxo-1-(3-trifluoromethyl-phenyl)-2,5-dihydro-1H,2′H-[3,3′]bipyrazolyl-4-carbonyl]-amino}-cyclopentanecarbonyl)-methyl-amino]-ethyl}-trimethyl-ammonium benzene sulphonate]"
17,< 1,"C[C@H](NC(=O)c1c(-c2ccnn2-c2ccc(C#N)cc2)n(C)n(-c2cccc(C(F)(F)F)c2)c1=O)C(=O)N1CCC[N+](C)(C)CC1 [Example 66, 4-((S)-2-{[2′-(4-Cyano-phenyl)-2-methyl-5-oxo-1-(3-trifluoromethyl-phenyl)-2,5-dihydro-1H,2′H-[3,3′]bipyrazolyl-4-carbonyl]-amino}-propionyl)-1,1-dimethyl-[1,4]diazepan-1-ium benzene sulphonate]"
18,< 1,"CN(C)CCOC(=O)[C@H]1CC[C@H](NC(=O)c2c(-c3ccnn3-c3ccc(C#N)cc3)n(C)n(-c3cccc(C(F)(F)F)c3)c2=O)CC1 [Example 15, Trans-4-{[2′-(4-cyano-phenyl)-2-methyl-5-oxo-1-(3-trifluoromethyl-phenyl)-2,5-dihydro-1H,2′H-[3,3′]bipyrazolyl-4-carbonyl]-amino}-cyclohexanecarboxylic acid 2-dimethylamino-ethyl ester]"
19,1 to 10,"Cn1c(-c2ccnn2-c2ccc(C#N)cc2)c(C(=O)OC2CCN(C(=O)C[N+](C)(C)C)CC2)c(=O)n1-c1cccc(C(F)(F)F)c1 [Example 34, (2-{4-[2′-(4-Cyano-phenyl)-2-methyl-5-oxo-1-(3-trifluoromethyl-phenyl)-2,5-dihydro-1H,2′H-[3,3′]bipyrazolyl-4-carbonyloxy]-piperidin-1-yl}-2-oxo-ethyl)-trimethyl-ammonium benzene sulphonate]"
